Among the data in patent publication US6908935B2, “Calcium receptor modulating agents” (Amgen Inc., priority 2002, dated 2005) are EC50 values, retold here.

Some results are limits rather than exact numbers.

For orientation: EC50 means the concentration at which the effect is half-maximal. Read a high EC50 as a need for much substance.

The assay deals with T1, human parathyroid cell Ca^2+ receptor (hPCaR) (Homo sapiens, UniProt P41180).
T1 construct: expressed in transfected cells
T1 sequence (P41180 20-1078): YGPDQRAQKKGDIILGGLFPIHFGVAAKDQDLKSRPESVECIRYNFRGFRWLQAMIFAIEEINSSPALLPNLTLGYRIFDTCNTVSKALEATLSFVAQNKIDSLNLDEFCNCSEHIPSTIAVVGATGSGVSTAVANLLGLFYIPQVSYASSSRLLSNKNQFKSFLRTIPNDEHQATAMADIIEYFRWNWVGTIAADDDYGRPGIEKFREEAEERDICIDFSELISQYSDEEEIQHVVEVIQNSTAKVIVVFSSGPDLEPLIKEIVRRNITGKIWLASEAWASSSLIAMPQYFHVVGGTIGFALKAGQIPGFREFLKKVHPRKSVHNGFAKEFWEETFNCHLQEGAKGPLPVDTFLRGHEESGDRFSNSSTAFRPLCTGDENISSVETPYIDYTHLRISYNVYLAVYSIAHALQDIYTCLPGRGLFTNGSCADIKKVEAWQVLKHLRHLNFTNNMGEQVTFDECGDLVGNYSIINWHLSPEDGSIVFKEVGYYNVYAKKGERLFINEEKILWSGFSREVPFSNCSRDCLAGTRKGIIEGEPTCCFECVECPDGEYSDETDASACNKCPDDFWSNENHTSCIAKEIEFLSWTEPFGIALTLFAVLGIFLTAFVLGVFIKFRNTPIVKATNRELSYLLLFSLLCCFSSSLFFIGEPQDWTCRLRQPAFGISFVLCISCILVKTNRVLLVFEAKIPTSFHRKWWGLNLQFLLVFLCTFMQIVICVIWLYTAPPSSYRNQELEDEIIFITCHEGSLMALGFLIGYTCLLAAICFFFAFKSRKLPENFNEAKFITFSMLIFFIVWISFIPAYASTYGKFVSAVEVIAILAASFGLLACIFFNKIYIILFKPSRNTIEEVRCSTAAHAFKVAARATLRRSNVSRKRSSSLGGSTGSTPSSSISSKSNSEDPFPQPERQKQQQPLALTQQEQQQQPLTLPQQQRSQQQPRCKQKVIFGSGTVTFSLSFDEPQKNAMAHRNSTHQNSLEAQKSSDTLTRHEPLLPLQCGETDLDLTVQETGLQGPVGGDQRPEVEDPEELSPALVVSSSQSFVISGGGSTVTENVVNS
Kind of assay: [Ca2+]i measurement with fluo-3 in HEK 293 4.0-7 cells stably transfected with hPCaR. Format: cell-based. As to conditions: fluo-3 fluorescence (485/530 nm), effect on [Ca^2+]i. Put shortly:
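HEK 293 cells stably expressing human parathyroid Ca2+ receptor (clone 4.0-7), loaded with 2 μM fluo-3 AM for 30 min at 37 °C in parathyroid cell buffer (pH 7.45) with 1 mM CaCl2 and 0.5% BSA. After compound addition, intracellular Ca2+ followed by fluorescence at 485 nm excitation/530 nm emission.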
`COc1ccc(-c2cc(CN[C@H](C)c3ccccc3)ccc2F)cc1` [Example 465, (1R)-N-((6-fluoro-4′-(methyloxy)-1,1′-biphenyl-3-yl)methyl)-1-phenylethanamine] came in with an EC50 of at most 10 µM.

In the case of `COc1ccc(CN[C@H](C)c2cccc3ccccc23)cc1-c1ccc(C(=O)N(C)C)cc1` [N,N-dimethyl-2′-(methyloxy)-5′-((((1R)-1-(1-naphthalenyl)ethyl)amino)methyl)-1,1′-biphenyl-4-carboxamide], the EC50 is at most 10 µM.

`COc1cccc([C@@H](C)NCc2ccc(OC)c(-c3ccc(C(=O)N(C)C)cc3)c2)c1` [N,N-dimethyl-2′-(methyloxy)-5′-((((1R)-1-(3-(methyloxy)phenyl)ethyl)amino)methyl)-1,1′-biphenyl-4-carboxamide] displayed an EC50 of at most 10 µM.

In turn, `COc1ccc(CN[C@H](C)c2ccccc2)cc1-c1ccc(C(=O)N(C)C)cc1` [N,N-dimethyl-2′-(methyloxy)-5′-((((1R)-1-phenylethyl)amino)methyl)-1,1′-biphenyl-4-carboxamide] returned an EC50 of at most 10 µM.

The compound `COc1ccc(CN[C@H](C)c2ccccc2)cc1-c1ccc(N(C)C)nc1` [N,N-dimethyl-5-(2-(methyloxy)-5-((((1R)-1-phenylethyl)amino)methyl)phenyl)-2-pyridinamine] had an EC50 of at most 10 µM.

Regarding `CC(=O)Nc1cccc(-c2cccc(CN[C@H](C)c3cccc4ccccc34)c2)c1` [N-(3′-((((1R)-1-(1-naphthalenyl)ethyl)amino)methyl)-1,1′-biphenyl-3-yl)acetamide], the EC50 was at most 10 µM.

Consider `COc1cccc([C@@H](C)NCc2cccc(-c3cccc(NC(C)=O)c3)c2)c1` [N-(3′-((((1R)-1-(3-(methyloxy)phenyl)ethyl)amino)methyl)-1,1′-biphenyl-3-yl)acetamide], for which the EC50 is at most 10 µM.

On to `CC(=O)Nc1cccc(-c2cccc(CN[C@H](C)c3ccccc3)c2)c1` [N-(3′-((((1R)-1-phenylethyl)amino)methyl)-1,1′-biphenyl-3-yl)acetamide], for which the EC50 is at most 10 µM.

As for `COc1ccc(-c2cc(CN[C@H](C)c3cccc4ccccc34)ccc2NS(C)(=O)=O)cc1` [N-(4′-(methyloxy)-5-((((1R)-1-(1-naphthalenyl)ethyl)amino)methyl)-1,1′-biphenyl-2-yl)methanesulfonamide], the EC50 was at most 10 µM.

With `COc1ccc(-c2cc(CN[C@H](C)c3cccc(OC)c3)ccc2NS(C)(=O)=O)cc1` [N-(4′-(methyloxy)-5-((((1R)-1-(3-(methyloxy)phenyl)ethyl)amino)methyl)-1,1′-biphenyl-2-yl)methanesulfonamide], the half-maximal effective concentration (EC50) was at most 10 µM.

`COc1ccc(-c2cc(CN[C@H](C)c3ccccc3)ccc2NS(C)(=O)=O)cc1` [N-(4′-(methyloxy)-5-((((1R)-1-phenylethyl)amino)methyl)-1,1′-biphenyl-2-yl)methanesulfonamide] had an EC50 of at most 10 µM.

`CC(=O)Nc1ccc(-c2cccc(CN[C@H](C)c3cccc4ccccc34)c2)cn1` [N-(5-(3-((((1R)-1-(1-naphthalenyl)ethyl)amino)methyl)phenyl)-2-pyridinyl)acetamide] had an EC50 of at most 10 µM.

As to `COc1cccc([C@@H](C)NCc2cccc(-c3ccc(NC(C)=O)nc3)c2)c1` [N-(5-(3-((((1R)-1-(3-(methyloxy)phenyl)ethyl)amino)methyl)phenyl)-2-pyridinyl)acetamide], the EC50 was at most 10 µM.

`CCN(CC)CCCOc1ccc(-c2cc(CN[C@H](C)c3cccc4ccccc34)ccc2OC)cn1` [N-((3-(6-((3-(diethylamino)propyl)oxy)-3-pyridinyl)-4-(methyloxy)phenyl)methyl)-N-((1R)-1-(1-naphthalenyl)ethyl)amine]: the EC50 was at most 10 µM.

On to `CCN(CC)CCCOc1ccc(-c2cc(CN[C@H](C)c3cccc(OC)c3)ccc2OC)cn1` [N-((3-(6-((3-(diethylamino)propyl)oxy)-3-pyridinyl)-4-(methyloxy)phenyl)methyl)-N-((1R)-1-(3-(methyloxy)phenyl)ethyl)amine], for which the EC50 is at most 10 µM.

As for `COc1ccc(CNC(C)c2cccc(OC(F)(F)F)c2)cc1-c1ccc(C(F)(F)F)cc1` (stereo not drawn) [N-((6-(methyloxy)-4′-(trifluoromethyl)-1,1′-biphenyl-3-yl)methyl)-1-(3-((trifluoromethyl)oxy)phenyl)ethanamine], the EC50 is at most 10 µM.

For the compound `COc1ccc(CNC(C)c2cccc(C)c2)cc1-c1ccc(C(F)(F)F)cc1` (stereo not drawn) [N-((6-(methyloxy)-4′-(trifluoromethyl)-1,1′-biphenyl-3-yl)methyl)-1-(3-methylphenyl)ethanamine], the EC50 was at most 10 µM.

With `CCNC(=O)Nc1ccc(CN[C@H](C)c2cccc3ccccc23)cc1-c1ccc(OC)cc1` [N-ethyl-N′-(4′-(methyloxy)-5-((((1R)-1-(1-naphthalenyl)ethyl)amino)methyl)-1,1′-biphenyl-2-yl)urea], the EC50 is at most 10 µM.

For the compound `CCNC(=O)Nc1ccc(CN[C@H](C)c2cccc(OC)c2)cc1-c1ccc(OC)cc1` [N-ethyl-N′-(4′-(methyloxy)-5-((((1R)-1-(3-(methyloxy)phenyl)ethyl)amino)methyl)-1,1′-biphenyl-2-yl)urea], the EC50 was at most 10 µM.

Turning to `CCNC(=O)Nc1ccc(CN[C@H](C)c2ccccc2)cc1-c1ccc(OC)cc1` [N-ethyl-N′-(4′-(methyloxy)-5-((((1R)-1-phenylethyl)amino)methyl)-1,1′-biphenyl-2-yl)urea], the EC50 was at most 10 µM.

Turning to `CCOC(=O)c1ccc(-c2cc(CN[C@H](C)c3cccc4ccccc34)ccc2OC)cc1` [ethyl 2′-(methyloxy)-5′-((((1R)-1-(1-naphthalenyl)ethyl)amino)methyl)-1,1′-biphenyl-4-carboxylate], the EC50 is at most 10 µM.

Regarding `CCOC(=O)c1ccc(-c2cc(CN[C@H](C)c3cccc(OC)c3)ccc2OC)cc1` [ethyl 2′-(methyloxy)-5′-((((1R)-1-(3-(methyloxy)phenyl)ethyl)amino)methyl)-1,1′-biphenyl-4-carboxylate], the EC50 was at most 10 µM.

In the case of `CCOC(=O)c1ccc(-c2cc(CN[C@H](C)c3ccccc3)ccc2OC)cc1` [ethyl 2′-(methyloxy)-5′-((((1R)-1-phenylethyl)amino)methyl)-1,1′-biphenyl-4-carboxylate], the EC50 was at most 10 µM.

`CCOC(=O)N1CCC(c2cc(CN[C@H](C)c3cccc4ccccc34)ccc2OC)CC1` [ethyl 4-(2-(methyloxy)-5-((((1R)-1-(1-naphthalenyl)ethyl)amino)methyl)phenyl)-1-piperidinecarboxylate] yielded an EC50 of at most 10 µM.

The compound `CCOC(=O)N1CC=C(c2cc(CN[C@H](C)c3cccc4ccccc34)ccc2OC)CC1` [ethyl 4-(2-(methyloxy)-5-((((1R)-1-(1-naphthalenyl)ethyl)amino)methyl)phenyl)-3,6-dihydro-1(2H)-pyridinecarboxylate] returned an EC50 of at most 10 µM.

In turn, `CCOC(=O)N1CCC(c2cc(CN[C@H](C)c3cccc(OC)c3)ccc2OC)CC1` [ethyl 4-(2-(methyloxy)-5-((((1R)-1-(3-(methyloxy)phenyl)ethyl)amino)methyl)phenyl)-1-piperidinecarboxylate] showed an EC50 of at most 10 µM.

Compound `CCOC(=O)N1CCC(c2cc(CN[C@H](C)c3ccccc3)ccc2OC)CC1` [ethyl 4-(2-(methyloxy)-5-((((1R)-1-phenylethyl)amino)methyl)phenyl)-1-piperidinecarboxylate] displayed an EC50 of at most 10 µM.
